ChEMBL document CHEMBL1154839, “Molassamide, a depsipeptide serine protease inhibitor from the marine cyanobacterium Dichothrix utahensis” (J Nat Prod, 2010)
The source made the active and inactive calls. No cut-off for these calls is given here.

How the values were obtained:
Chymotrypsinogen A = Chymotrypsinogen A (Bos taurus, UniProt P00766); assay: Inhibition of bovine pancreas alpha-chymotrypsin preincubated for 10 mins by spectrophotometry
[1] = molecular target: Chymotrypsin-like elastase family member 1 (Sus scrofa, UniProt P00772); assay: Inhibition of pig pancreatic elastase preincubated for 15 mins by spectrophotometry
Chain of Chymotrypsin-like elastase family member 1 (P00772 whole entry): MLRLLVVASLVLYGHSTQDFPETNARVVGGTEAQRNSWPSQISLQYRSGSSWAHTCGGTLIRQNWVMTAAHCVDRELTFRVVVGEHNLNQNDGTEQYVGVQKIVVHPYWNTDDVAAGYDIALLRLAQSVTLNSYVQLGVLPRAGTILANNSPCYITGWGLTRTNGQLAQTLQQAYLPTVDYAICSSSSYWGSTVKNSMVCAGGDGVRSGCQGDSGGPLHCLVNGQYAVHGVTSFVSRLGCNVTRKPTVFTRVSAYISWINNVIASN

Trypsin (Sus scrofa) = Trypsin (Sus scrofa) (UniProt P00761); assay: Inhibition of pig pancreas trypsin at 10 uM preincubated for 10 mins by spectrophotometry
Chain of Trypsin (Sus scrofa) (P00761 whole entry): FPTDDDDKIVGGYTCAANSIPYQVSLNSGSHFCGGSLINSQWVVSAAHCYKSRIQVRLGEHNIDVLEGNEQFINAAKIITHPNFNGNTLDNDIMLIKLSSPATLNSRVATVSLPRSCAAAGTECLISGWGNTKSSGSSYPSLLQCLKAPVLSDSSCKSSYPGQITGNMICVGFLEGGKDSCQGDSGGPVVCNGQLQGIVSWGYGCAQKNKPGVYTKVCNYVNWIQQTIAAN

Structure (SMILES): C/C=C1\NC(=O)[C@@H](NC(=O)[C@@H](NC(=O)[C@H](C)NC(=O)CCC)[C@@H](C)O)[C@@H](C)OC(=O)[C@H](C(C)C)NC(=O)[C@H](Cc2ccc(O)cc2)N(C)C(=O)[C@H](Cc2ccccc2)N2C(=O)[C@H](CC[C@H]2O)NC1=O [MOLASSAMIDE]
- IC50 (Chymotrypsinogen A): 234 nM
- IC50 [1]: 32 nM
- inhibition (Trypsin (Sus scrofa)): inactive
